# Laboratory results published in patent publication EP0372603A2, “Antibacterial oral composition” (Colgate-Palmolive Company, priority 1988, dated 1990).
# Tests used:
# [1] = In vitro stain retention on hydroxyapatite (bovine serum albumin/acetaldehyde browning model); conditions: 0.12, 0.25 and 1.0% of aminoguanidine gluconate with 0.12% CHX
# Protocol: The following in vitro method correlates with and simulates the reaction whereby hydroxyapatite tooth mineral material is stained brown:
# 2.0 g hydroxyapatite (HAP), 10 ml of 25% Bovine Serum Albumin in 0.1M phosphate buffer (pH 7.0), 2.5 ml of 0.1M phosphate buffer containing mono-basic and di-basic sodium orthophosphate (pH 7), 25.0 ml of a test sample and 12.5 ml of 30% buffered acetaldehyde (pH 7) are mixed for 24 hrs. at 37 °C. The HAP is filtered and dried at 37 °C. The color retained on the HAP powder is qualified with a Gardner Color Difference Meter.
# [2] = tested on: Actinomyces viscosus cells; experiment: Antibacterial effect: full strength rinses exposed to cells for 60 seconds, CFU count; assay type: cell-based
# Protocol: The antibacterial effect of chlorhexidine in the presence of aminoguanidine is determined by exposing the following full strength rinses to Actinomyces viscosus cells for 60 seconds.
# [3] = tested on: in vitro plaque which is formed by Actinomyces viscosus and strep mutans on extracted human teeth; experiment: Antiplaque effect on in vitro plaque on extracted human teeth (visual score and erythrosine dye extraction); assay type: cell-based
# Protocol: The antiplaque effect of chlorhexidine in the presence of aminoguanidine is determined by rinsing in vitro plaque which is formed by Actinomyces viscosus and strep mutans on extracted human teeth for 30 seconds once per day for three days with the full strength rinses below. The plaque growth is induced on teeth by daily transferring the teeth to an inoculated fresh medium (tryptocase soy broth). The amount of plaque is scored visually as well as after disclosing with erythrosine dye. The dye is then extracted with ethanol. The amount of the dye adsorbed is directly proportional to the amount of the plaque on teeth. The dye concentration is measured spectrophotometrically at wavelength 533nm.
# [4] = Gingivitis/plaque/stain evaluation in monkeys sprayed with rinse once daily for 6 weeks; assay type: in vivo, squirrel monkeys; parameters: key to Final Gingival Index: 0 = clinically normal gingiva to 4 = obvious redness with bleeding; Initial Stain Index / Final Stain Index: scale not given here; conditions: for Final Gingival Index: once daily spray 30 seconds; for Initial Gingival Index: baseline before treatment, scale 0-4; for Initial Plaque Index: modified Quigley-Hein index
# Protocol: Adult squirrel monkeys are prepared for a gingivitis/plaque/stain evaluation including thorough prophylaxis. 36 surfaces (maxillary and mandibular; mesial, buccal and distal) are initially evaluated for plaque by a modified Quigley-Hein index and gingival inflation by the following scale: 0 - clinically normal; pink, form, knife-like gingival margin, triangular interdental papilla; 1 - change in the form of gingiva; gingival margin may be slightlyenlarged, no longer knife-like and firm, no color change; 2 - slight color change of marginal gingiva of interdental papilla, discrete areas of redness at most cornal surfaces of the free gingiva; 3- obvious color change in marginal gingiva or interdental papilla, no bleeding on probing; 4 - obvious color change; redness obvious; in addition, bleeding on probing or spontaneous bleeding.
# The squirrel monkeys are then divided into 3 groups of four and each is treated in a double blind manner once daily for 6 weeks. All dentitions are sprayed for 30 seconds from polyethylene bottles containing rinse solution.
# Initial and 6 week evaluations for three studies for plaque formation and gingival inflamation and 6 week evaluations for stain (indicate general protocol) follow, with stain TABLE 4
SMILES,chlorhexidine induced stain (in words) [1],antibacterial effect (in words) ([2]; 0.25% Aminoguanidine alone),effect on antibacterial activity of chlorhexidine (in words) ([2]; 0.25% Aminoguanidine with CHX),antiplaque activity (in words) ([3]; 0.25% Aminoguanidine alone),effect on antiplaque activity of chlorhexidine (in words) ([3]; 0.25% Aminoguanidine with CHX),"Final Plaque Index ([4]; Study A, after 6 weeks)","Final Gingival Index ([4]; Study A, after 6 weeks)",Initial Gingival Index ([4]; Study A),"Initial Plaque Index ([4]; Study A, baseline)","Final Plaque Index ([4]; Study B, after 6 weeks)","Final Stain Index ([4]; Study B, after 6 weeks)","Final Gingival Index ([4]; Study B, after 6 weeks)","Initial Stain Index ([4]; Study B, baseline)",Initial Gingival Index ([4]; Study B),"Initial Plaque Index ([4]; Study B, baseline)","Final Plaque Index ([4]; Study C, after 6 weeks)","Final Gingival Index ([4]; Study C, after 6 weeks)",Initial Gingival Index ([4]; Study C),"Initial Plaque Index ([4]; Study C, baseline)"
"N=C(N)NN [Aminoguanidine, Hydrazine Carboximidamide (aminoguanidine)]",reduces the chlorhexidine induced stain at least to about the level of the placebo,no antibacterial effect,does not compromise antibacterial activity of chlorhexidine,no antiplaque activity,does not compromise the antiplaque activity of chlorhexidine,–,–,–,–,–,–,–,–,–,–,–,–,–,–
"[H]/N=C(\N/C(=N/[H])NCCCCCCNC(=N)NC(=N)Nc1ccc(Cl)cc1)Nc1ccc(Cl)cc1 [CHX, chlorhexidine gluconate]",–,–,–,–,–,1.24,0.49,0.43,0.55,0.47,0.62,0.47,0.01,0.54,0.15,0.83,0.63,0.56,0.53
